{
  "source": "patent EP0768881B1",
  "about": "“ANTI-HIV TRIPLE COMBINATION COMPRISING ZIDOVUDINE, LAMIVUDINE AND LOVIRIDE” (JANSSEN PHARMACEUTICA N.V., priority 1994, dated 1996)",
  "key": {"[1]": {"assay": "Pharmacokinetic interaction between components in open case-control study", "type": "in vivo, HIV-1 infected patients", "settings": "between lamivudine and zidovudine or loviride", "description": "The triple combination of zidovudine (200 mg t.i.d.), lamivudine (300 mg b.i.d.) and loviride (100 mg t.i.d.) versus the double combination of zidovudine (200 mg t.i.d.) and loviride (100 mg t.i.d.) was assessed in an open case-control study. Twenty HIV-1 infected patients with a positive p24 antigen test at baseline were included. Both combinations were well tolerated. Serious drug-induced safety-related abnormalities were not observed. […] The median CD4 count (% versus baseline) during therapy in the group of patients treated with the triple combination were compared with the median CD4 count in the group of patients treated with the double combination in Table 1. The median p24 antigen count (% versus baseline) of the group of patients treated with the triple combination were compared with the median p24 antigen count of the group of patients treated with double combination in Table 2."}, "CD4 cells": {"tested_on": "CD4 cells", "settings": "patients receiving established anti-HIV drugs alone; count then decreases again; cited from earlier work"}},
  "data": [
    {"smiles": "Nc1ccn([C@H]2CS[C@@H](CO)O2)c(=O)n1", "note": "[lamivudine, (-)-2',3'-dideoxy-3'-thiacytidine]", "values": [
      {"measurement": "pharmacokinetic interaction", "setting": "[1]", "value": "No clinically relevant pharmacokinetic interaction"},
      {"measurement": "CD4 count increase", "setting": "CD4 cells", "value": "about 20%"}
    ]},
    {"smiles": "Cc1cn([C@H]2C[C@H](N=[N+]=[N-])[C@@H](CO)O2)c(=O)[nH]c1=O", "note": "[zidovudine, 3'-azido-3'-deoxythymidine]", "values": [
      {"measurement": "CD4 count increase", "setting": "CD4 cells", "value": "about 20%"}
    ]}
  ]
}
